Legend:
[1] = molecular target: T1, Adenosine receptor A1 (Homo sapiens, UniProt P30542); assay: biochemical
T1 sequence (P30542 whole entry): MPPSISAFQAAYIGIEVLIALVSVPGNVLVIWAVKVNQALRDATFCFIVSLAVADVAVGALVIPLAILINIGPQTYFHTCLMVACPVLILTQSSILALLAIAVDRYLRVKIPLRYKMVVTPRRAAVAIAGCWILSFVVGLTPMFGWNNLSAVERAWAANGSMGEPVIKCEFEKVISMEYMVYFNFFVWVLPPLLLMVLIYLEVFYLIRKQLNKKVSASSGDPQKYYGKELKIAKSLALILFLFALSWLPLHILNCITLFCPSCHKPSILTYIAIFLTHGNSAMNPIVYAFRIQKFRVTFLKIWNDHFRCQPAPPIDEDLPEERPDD
Description: Displacement of [3H]DPCPX from human cloned adenosine A1 receptor expressed in CHOK1 cells by scintillation counting

[2] = molecular target: Adenosine receptor A2a (Homo sapiens, UniProt P29274); assay: biochemical
[3] = species: Homo sapiens; assay: Selectivity ratio of Ki for human cloned adenosine A1 receptor to Ki for human cloned adenosine A2A receptor
[4] = Selectivity for adenosine A1 receptor over adenosine A2 receptor

Sequence of Adenosine receptor A2a (P29274 whole entry): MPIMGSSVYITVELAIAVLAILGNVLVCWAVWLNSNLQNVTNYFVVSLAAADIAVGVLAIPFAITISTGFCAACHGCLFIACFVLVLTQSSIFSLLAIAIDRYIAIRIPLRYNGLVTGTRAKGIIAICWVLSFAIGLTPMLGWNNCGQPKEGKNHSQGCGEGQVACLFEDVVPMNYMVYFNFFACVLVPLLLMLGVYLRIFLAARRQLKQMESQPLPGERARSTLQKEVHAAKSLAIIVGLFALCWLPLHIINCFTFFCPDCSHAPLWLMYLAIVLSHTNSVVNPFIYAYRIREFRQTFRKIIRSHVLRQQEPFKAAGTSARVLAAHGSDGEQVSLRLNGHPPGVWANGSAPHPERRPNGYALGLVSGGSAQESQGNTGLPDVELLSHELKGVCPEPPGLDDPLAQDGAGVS

SMILES | Ki [1] [nM] | Ki [2] [nM] | Ratio Ki [3] | fold change (FC) [4]
Cn1c(=O)c2[nH]c(-c3cccc(OCCN4CCCCC4)c3)nc2n(C)c1=O | 2100 | 800 | – | –
Cn1c(=O)c2[nH]c(-c3cccc(OCCN4CCOCC4)c3)nc2n(C)c1=O | 2100 | 1400 | – | –
COc1cc(-c2nc3c([nH]2)c(=O)n(C)c(=O)n3C)ccc1OCCN(C)C | > 100000 | 600 | 100 | –
COc1ccc(-c2nc3c([nH]2)c(=O)n(C)c(=O)n3C)cc1OCCN(C)C | 13500 | 400 | 30 | –
Cn1c(=O)c2[nH]c(-c3cccc(OCCN4CCCC4)c3)nc2n(C)c1=O | 1600 | 400 | – | –
CCN(CC)CCOc1ccc(-c2nc3c([nH]2)c(=O)n(C)c(=O)n3C)cc1OC | > 100000 | 1100 | 100 | –
COc1cc(-c2nc3c([nH]2)c(=O)n(C)c(=O)n3C)ccc1OCCN1CCCC1 | 11200 | 1000 | 10 | –
CN(C)CCOc1cccc(-c2nc3c([nH]2)c(=O)n(C)c(=O)n3C)c1 | 800 | 400 | – | –
CCN(CC)CCOc1cc(-c2nc3c([nH]2)c(=O)n(C)c(=O)n3C)ccc1OC | 43000 | 600 | 70 | –
COc1ccc(-c2nc3c([nH]2)c(=O)n(C)c(=O)n3C)cc1OCCN1CCCCC1 | > 100000 | 2700 | 38 | –
COc1cc(-c2nc3c([nH]2)c(=O)n(C)c(=O)n3C)ccc1OCCN1CCCCC1 | > 100000 | 700 | 100 | –
CCCn1c(=O)c2[nH]c(-c3ccc(OC)cc3O)nc2n(CCC)c1=O | – | – | – | 90
CCN(CC)CCOc1cccc(-c2nc3c([nH]2)c(=O)n(C)c(=O)n3C)c1 | 14000 | 100 | 140 | –
COc1cc(-c2nc3c([nH]2)c(=O)n(C)c(=O)n3C)ccc1OCCN1CCOCC1 | > 100000 | 100000 | – | –
COc1ccc(-c2nc3c([nH]2)c(=O)n(C)c(=O)n3C)cc1OCCN1CCOCC1 | > 100000 | 100 | – | –

— ChEMBL document CHEMBL1137738, “Synthesis of a series of 8-(substituted-phenyl)xanthines and a study on the effects of substitution pattern of phenyl substituents on affinity for adenosine A(1) and A(2A) receptors” (Eur J Med Chem, 2009)
